The conditions of data set [1]: measured approximately 1 minute after placing the pouch adjacent to the gum line; five blindfolded volunteer subjects, one-hour break between tests. How it is done: Five volunteer subjects compared the effects of nicotine consumption and 6-methylnicotine consumption on blood pressure Subjects were blindfolded and had their blood pressure measured before using a pouch (to provide a baseline blood pressure) and re-measured approximately 1 minute after placing a nicotine pouch or a 6-methylnicotine pouch adjacent to the gum line. All subjects performed the test with a nicotine pouch and with a 6-methylnicotine pouch on the same day with a one-hour break between the tests.

How the values of data set [2] were obtained: Six volunteer subjects who are regular users of nicotine pouches containing 8 mg of nicotine were each administered an oral pouch of the disclosure containing 3 mg of 6-methylnicotine. Each subject used the 6-methylnicotine pouch in the same manner as a nicotine pouch, by placing the pouch inside the mouth and adjacent to the lip and gum.
The conditions of data set [3]: oral dissolvable film containing 1.6 mg of 6-methylnicotine, placed inside the cheek, compared to a film containing 2 mg of nicotine; four volunteer subjects, self-reported. The method, then:
Four volunteer subjects were provided with an oral dissolvable film according to the disclosure containing 1.6 mg of 6-methylnicotine and an oral dissolvable film containing 2 mg of nicotine. Each subject placed the nicotine strip against the inside of their cheek and noted their physiological response. Subjects abstained from nicotine or tobacco usage for 1 hour after consuming the nicotine strip, then placed the 6-methylnicotine strip according to the disclosure against the inside of their cheek and noted their physiological response.

SMILES strings stand for the structures.

As to `Cc1ccc([C@@H]2CCCN2C)cn1` (stereo in doubt) [6-methylnicotine], in data set [1], the “blood pressure following usage of a 6-methylnicotine pouch versus a nicotine pouch” value is listed as “No significant difference”. In addition, the “physiological effect, such as a "head rush" experienced during pouch usage” value in data set [2] (in vivo, po) was “more potent physiological effect”. Also, the “desire to use nicotine- or tobacco-based products after use of the pouch” value in data set [2] (oral pouch containing 3 mg of 6-methylnicotine, six volunteer subjects who regularly use 8 mg nicotine pouches, self-reported) is “zero desire to use nicotine- or tobacco-based products”. For the same compound, the “physiological response (as a perceived "head rush")” value in data set [3] is on record as “stronger physiological response”.

Values taken from patent publication US20240350476A1 (priority 2023, published 2024).
